# Source: patent publication US11950594B2, “Methods and compositions for inhibiting formation of biofilms” (INSTITUTE OF MICROBIOLOGY, CHINESE ACADEMY OF SCIENCES, priority 2019, dated 2024)
# System: pslA::lacZ
# Experiment: pslA::lacZ transcription fusion (β-galactosidase activity)
# Assay type: cell-based, Pseudomonas aeruginosa
# Conditions: FIG. 5
# Procedure: 1% inoculation amount of overnight cultured Pseudomonas aeruginosa (pslA::lacZ mutant strain) were respectively inoculated in Jensen media with and without coumarin-chalcone compounds C1-C12, and incubated at 37° C. until OD600 reached to 0.5. Bacteria from 1.5 ml culture aliquots were resuspended in 200 μl Z-buffer and frozen/thawed three times to lyses bacteria. Cell lysates were assayed for both β-galactosidase activities as well as for total proteins by BCA assay (Pierce, USA). All β-galactosidase activity units were normalized by total protein per ml aliquot.
# The units of β-galactosidase activity may be determined according to Equation (1) as follows: Miller units=1000×(OD420−1.7×OD550)/(t×V×OD600) (1) where t denotes a time (unit: min), V denotes the volume (unit: mL).
# About 500 bp of DNA fragments upstream of ATG start codon of pslA gene were cloned into a polyclonal site of mini-CTX lacZ vector (note that the selected promoter fragment cannot affect the frameshift mutation). A recombinant plasmid (e.g., pTH2) was transferred into Escherichia coli S17-1λ pir. Then activated PAO1 was inoculated into 5 mL of LBNS medium, and S17-1/pTH2 strain was inoculated into 5 mL of LB medium with tetracycline (Tet) ([…]), and both cultured overnight at 37° C. with 200 rpm. […]
smiles,measurement,value
COc1cccc(/C=C/C(=O)c2cc3ccccc3oc2=O)c1 [Compound C9],production of Psl at the transcription level (pslA::lacZ),affected the production of Psl at the transcription level
